Results as given in ChEMBL document CHEMBL1143995, “Virtual screening approaches for the identification of non-lipid autotaxin inhibitors” (Bioorg Med Chem, 2008).

Biological target: Autotaxin (Homo sapiens) (UniProt Q13822)
Details: MDA-MB-435, at 10 µM
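Note: activity read as cleavage of a fluorescent lysophosphatidylcholine analog by autotaxin expressed in the cells.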

Description: Inhibition of human autotaxin expressed in MDA-MB-435 cells assessed as fluorescent lysophosphatidyl choline analog hydrolysis at 10 uM

Row | SMILES | inhibition [%]
1 | Oc1ccc(/N=N/c2ccccc2Br)cc1/C=N/c1ccc(I)cc1 | 87
2 | O=C(Nc1ccc(O)c(C(=O)O)c1)c1ccc2c(c1)C(=O)N(CC1CCCO1)C2=O (stereo not given) | 67
3 | O=C(O)c1cccc(NC(=O)c2ccc3c(c2)C(=O)N(Cc2cccnc2)C3=O)c1 | 56
4 | O=C(c1ccc2c(c1)C(=O)N(N1C(=O)c3ccccc3C1=O)C2=O)c1ccc2c(c1)C(=O)N(N1C(=O)c3ccccc3C1=O)C2=O | 90
5 | CC(C)(C)c1ccc(C(=O)NC(=S)N2CCCC2)cc1 | 76
6 | CC(=O)OCCN1C(=O)c2ccc(C(=O)c3ccc4c(c3)C(=O)N(CCOC(C)=O)C4=O)cc2C1=O | 91
7 | Cc1ccc(NC(=S)NC(=O)C2CCCC2)cc1C | 90
8 | O=C(NN1C(=O)c2ccc(C(=O)c3ccc4c(c3)C(=O)N(NC(=O)c3ccncc3)C4=O)cc2C1=O)c1ccncc1 | 31
9 | CCn1cc(C(=O)O)c(=O)c2cnc(N3CCN(C(=S)NC(CC(=O)OC)C(=O)OC)CC3)nc21 (stereo not given) | 62
10 | O=C(O)c1cc(NC(=O)c2ccc3c(c2)C(=O)N(CC2CCCO2)C3=O)cc(C(=O)O)c1 (stereo not given) | 71
11 | Cc1ccccc1NC(=O)c1cccc(N2C(=O)c3ccc(C(=O)O)cc3C2=O)c1 | 79
12 | O=C(c1ccc2c(c1)C(=O)N(c1ccc(Br)cc1)C2=O)c1ccc2c(c1)C(=O)N(c1ccc(Br)cc1)C2=O | 93
13 | Cc1ccc(N2C(=O)c3ccc(C(=O)c4ccc5c(c4)C(=O)N(c4ccc(C)cc4C(=O)O)C5=O)cc3C2=O)c(C(=O)O)c1 | 70
14 | O=C(O)c1ccc(Oc2ccc(C(=O)c3ccc4c(c3)C(=O)N(c3ccccc3C(=O)O)C4=O)cc2)cc1 | 71
15 | CCCCCCCOC(=O)c1ccc(N2C(=O)c3ccc(C(=O)c4ccc5c(c4)C(=O)N(c4ccc(C(=O)OCCCCCCC)cc4)C5=O)cc3C2=O)cc1 | 58
16 | O=C(c1ccc2c(c1)C(=O)N(c1ccccc1-c1ccccc1)C2=O)c1ccc2c(c1)C(=O)N(c1ccccc1-c1ccccc1)C2=O | 91
17 | CCCCN1C(=O)c2ccc(C(=O)Nc3cc(C(=O)O)cc(C(=O)O)c3)cc2C1=O | 89
18 | CCn1cc(C(=O)O)c(=O)c2cnc(N3CCN(C(=S)Nc4cc5oc6ccccc6c5cc4OC)CC3)nc21 | 88
19 | O=C(O)c1ccc2c(c1)C(=O)N(c1ccc(Cl)c(NC(=O)c3ccc4ccccc4c3O)c1)C2=O | 86
20 | O=C(O)c1cccc(NC(=O)c2ccc3c(c2)C(=O)N(c2ccccc2)C3=O)c1 | 79
21 | O=C(Cc1ccccc1)Nc1cc(N2C(=O)c3ccc(C(=O)O)cc3C2=O)ccc1Cl | 74
22 | CCn1c(SCC(=O)Nc2ccc(C(C)=O)cc2)nc2nc3c(cc2c1=O)CCCC3 | 21
23 | Cc1c(N2C(=O)c3ccc(C(=O)c4ccc5c(c4)C(=O)N(c4c(C)n(C)n(-c6ccccc6)c4=O)C5=O)cc3C2=O)c(=O)n(-c2ccccc2)n1C | 67

Row | SMILES | inhibition [%]
24 | COc1ccc(N2C(=O)c3ccc(C(=O)Nc4cccc(C(=O)O)c4)cc3C2=O)cc1 | 58
25 | O=C(O)c1cccc(NC(=O)c2ccc3c(c2)C(=O)N(c2ccc(/N=N/c4ccccc4)cc2)C3=O)c1 | 45
26 | O=C(NC1c2ccccc2Oc2ccccc21)c1ccc(C(=O)NC2c3ccccc3Oc3ccccc32)cc1 | 91
27 | Cc1ccc(C(=O)O)cc1N1C(=O)c2ccc(C(=O)c3ccc4c(c3)C(=O)N(c3cc(C(=O)O)ccc3C)C4=O)cc2C1=O | 83
28 | O=C(O)c1ccc2c(c1)C(=O)N(c1ccc(C(=O)OCC(=O)c3ccccc3)cc1)C2=O | 71
29 | O=C(O)c1ccc2c(c1)C(=O)N(c1cccc(-c3nc4ccccc4c(=O)o3)c1)C2=O | 71
30 | Cc1cc(=O)oc2c(/C=N/c3ccc(/N=N/c4ccccc4)cc3)c(O)ccc12 | 91
31 | O=C(/C=C/c1cccc(N2C(=O)c3ccc(C(=O)c4cccc([N+](=O)[O-])c4)cc3C2=O)c1)c1ccccc1 | 90
32 | Cc1ccc(/N=N/c2cc(C)ccc2NC(=O)c2ccc(Oc3ccc(C(=O)Nc4ccc(C)cc4/N=N/c4ccc(C)cc4)cc3)cc2)cc1 | 93
33 | O=C(O)c1ccc(Oc2ccc(C(=O)c3ccc4c(c3)C(=O)N(c3cccc5ccccc35)C4=O)cc2)cc1 | 31
34 | CCn1cc(C(=O)O)c(=O)c2cc(F)c(N3CCN(C(=S)NC4CC5CCC4C5)CC3)cc21 (stereo not given) | 83
35 | CC(=O)Oc1cccc(N2C(=O)c3ccc(C(=O)c4ccc5c(c4)C(=O)N(c4cccc(OC(C)=O)c4)C5=O)cc3C2=O)c1 | 80
36 | O=C(Cc1ccccc1)Nc1cccc(N2C(=O)c3ccc(C(=O)O)cc3C2=O)c1 | 74
37 | O=C(O)c1cccc(NC(=O)c2ccc3c(c2)C(=O)N(C2CCCCC2)C3=O)c1 | 55
38 | CCn1cc(C(=O)O)c(=O)c2cnc(N3CCN(C(=S)Nc4cc(Cl)cc(Cl)c4)CC3)nc21 | 0
39 | Cc1cc(=O)oc2cc(OCC(=O)NC(CC(=O)O)C(=O)O)ccc12 (stereo not given) | 85
40 | O=C(c1ccc2c(c1)C(=O)N(c1cccc3ccccc13)C2=O)c1ccc2c(c1)C(=O)N(c1cccc3ccccc13)C2=O | 59
41 | O=S(=O)(O)c1cc(O)c2c(/N=N/c3c(S(=O)(=O)O)cc4cc(S(=O)(=O)O)cc(O)c4c3O)cc(S(=O)(=O)O)cc2c1 | 85
42 | Cc1c(NS(=O)(=O)CC23CCC(CC2=O)C3(C)C)c(=O)n(-c2ccccc2)n1C (stereo not given) | 88
43 | CC(=O)Nc1ccc(/N=N/c2c(S(=O)(=O)O)cc3cc(NC(=O)Nc4ccc5c(O)c(/N=N/c6ccccc6)c(S(=O)(=O)O)cc5c4)ccc3c2O)cc1 | 71
44 | O=C(O)c1ccc(Oc2ccc(C(=O)c3ccc4c(c3)C(=O)N(c3ccc(O)cc3)C4=O)cc2)cc1 | 62
45 | O=C(O)c1cccc(NC(=O)c2ccc3c(c2)C(=O)N(c2nccs2)C3=O)c1 | 71
46 | Cc1ccc(/N=N/c2cc(C)ccc2NC(=O)c2ccc3c(c2)C(=O)N(N2C(=O)c4ccccc4C2=O)C3=O)cc1 | 81

More lines, now with the values ahead:

Row | inhibition [%] | SMILES
47 | 89 | O=C(O)c1ccc2c(c1)C(=O)N(c1cccc(N3C(=O)c4ccc(C(=O)O)cc4C3=O)n1)C2=O
48 | 70 | O=C(O)c1ccc2c(c1)C(=O)N(c1ccc(Oc3ccc([N+](=O)[O-])cc3)cc1)C2=O
49 | 85 | COCC(=O)N1N=C(c2cccc(NS(C)(=O)=O)c2)CC1c1cccc([N+](=O)[O-])c1 (stereo not given)
50 | 48 | O=C(O)c1ccc2c(c1)C(=O)N(c1cccc(C(=O)Nc3cccc(Cl)c3)c1)C2=O
51 | 86 | O=C(O)c1cc(NC(=O)c2ccc3c(c2)C(=O)N(Cc2cccnc2)C3=O)cc(C(=O)O)c1
52 | 46 | O=C(O)c1ccc(CN2C(=O)c3ccc(C(=O)c4ccc5c(c4)C(=O)N(Cc4ccc(C(=O)O)cc4)C5=O)cc3C2=O)cc1
53 | 65 | COC(=O)c1ccc(N2C(=O)c3ccc(C(=O)c4ccc5c(c4)C(=O)N(c4ccc(C(=O)OC)cc4)C5=O)cc3C2=O)cc1
54 | 86 | CCOc1ccccc1N1C(=O)c2ccc(C(=O)c3ccc4c(c3)C(=O)N(c3ccccc3OCC)C4=O)cc2C1=O
55 | 80 | CC(C)C(=O)NC(=S)Nc1ccc(N2CCOCC2)cc1
56 | 87 | CCCCOC(=O)c1ccccc1N1C(=O)c2ccc(C(=O)c3ccc4c(c3)C(=O)N(c3ccccc3C(=O)OCCCC)C4=O)cc2C1=O
57 | 90 | O=C(O)c1ccc(Oc2ccc(C(=O)c3ccc4c(c3)C(=O)N(c3ccc([N+](=O)[O-])cc3)C4=O)cc2)cc1
58 | 86 | Oc1cccc(/C=N/c2ccc(/N=N/c3ccccc3)cc2)c1O
59 | 87 | O=C(O)c1ccc2c(c1)C(=O)N(c1ccc(-c3nnc(-c4ccccc4)o3)cc1)C2=O
60 | 78 | CCn1cc(C(=O)O)c(=O)c2cnc(N3CCN(C(=S)NC(=O)c4c(-c5ccccc5)noc4C)CC3)nc21
61 | 67 | O=C(c1ccc2c(c1)C(=O)N(Cc1ccccc1)C2=O)c1ccc2c(c1)C(=O)N(Cc1ccccc1)C2=O
62 | 58 | CC(=O)OCCCN1C(=O)c2ccc(C(=O)c3ccc4c(c3)C(=O)N(CCCOC(C)=O)C4=O)cc2C1=O
63 | 91 | Cc1ccnc(N2C(=O)c3ccc(C(=O)c4ccc5c(c4)C(=O)N(c4cc(C)ccn4)C5=O)cc3C2=O)c1
64 | 89 | CCS(=O)(=O)N1N=C(c2ccc(NS(C)(=O)=O)cc2)CC1c1ccc(OC)cc1 (stereo not given)
65 | 91 | O=C(O)c1cn(C2CC2)c2cc(N3CCN(C(=S)Nc4ccc5c(c4)OCCO5)CC3)c(F)cc2c1=O
66 | 53 | CC(=O)Oc1ccc(N2C(=O)c3ccc(C(=O)c4ccc5c(c4)C(=O)N(c4ccc(OC(C)=O)cc4C(=O)O)C5=O)cc3C2=O)c(C(=O)O)c1
67 | 82 | O=C(O)c1ccc2c(c1)C(=O)N(c1ccc(/N=N/c3ccccc3)cc1)C2=O
68 | 88 | O=C(/C=C/c1cccs1)NC(=S)N1CCCCCC1
69 | 49 | O=C(O)c1cc(C(=O)O)cc(N2C(=O)c3ccc(C(=O)c4ccc5c(c4)C(=O)N(c4cc(C(=O)O)cc(C(=O)O)c4)C5=O)cc3C2=O)c1
70 | 59 | CC(=O)Nc1ccc(N2C(=O)c3ccc(C(=O)c4ccc5c(c4)C(=O)N(c4ccc(NC(C)=O)cc4)C5=O)cc3C2=O)cc1
